Measurements from patent publication US8481459B2, “Chemical inhibitors of ethylene biosynthesis” (Academia Sinica, priority 2010, dated 2013).
Entries after “also recorded” stand apart in the source; their conditions may differ.

Columns and labels:
[1] = system: etiolated eto2-1 seedlings; assay: Hypocotyl length of etiolated eto2-1 seedlings; type: in vivo, Arabidopsis thaliana; settings: 30 μM
Method: Seeds of eto1-4 and eto2-1 were germinated in the dark in the absence (−) or presence (+) of different concentrations (10, 20 or 30 μM) of exemplary invention compounds and AVG. The length of hypocotyls and ethylene levels were quantified in 3-day-old etiolated seedlings. Data represent means±SE (n>40), and the experiments were repeated 3 times with similar results.
Therefore, ACC oxidase as the primary target of exemplary the exemplary invention compounds can be excluded. To determine whether the exemplary invention compounds are inhibitors of ACC synthase, the following assays were used. First, the hypocotyl length and ethylene level in the dominant eto2-1 mutant were analyzed, which bears a missense mutation at the 3′ terminus of ACS5 to generate a mutated yet functional protein, ACS5^eto2-1. […] Second, the effect of exemplary invention compounds on the enzymatic activity of recombinant Arabidopsis ACS5 protein by an in vitro ACS activity assay was analyzed (Chae, et al. (2003) Plant Cell 15, 545-559; Savaldi-Goldstein, et al. (2008) Proc Natl Acad Sci USA 105, 15190-15195).

[2] = system: etiolated eto1-4 seedlings; assay: Triple response phenotype / hypocotyl length of etiolated eto1-4 seedlings; type: in vivo, Arabidopsis thaliana; settings: for ranking in both hypocotyl length and ethylene level assays / suppression of the eto1-4 (triple response) phenotype: 10 μM; for ranking in both hypocotyl length and ethylene level assays: etiolated eto1-4, FIG. 3; for suppression of the eto1-4 (triple response) phenotype: germinated in the dark for 3 days; for effectiveness in phenotypical assay: etiolated eto1-4 seedlings; for concentration at which hypocotyl elongation becomes visible / concentration reaching maximal / nearly saturated effect on hypocotyl: eto1-4, 3 days in the dark, dose series
Method: All mutants and transgenic plants were derived from the wild-type Arabidopsis thaliana Columbia ecotype (Col-0) and cultivated under a long-day condition (16-h light/8-h dark at 22° C.) under exemplary e light (100-150 μE m^−2 s^−1). A reporter construct, 5×EBS::LUC (a generous gift from Drs. Hai Li and Anna N. Stepanova, Salk Institute, USA), containing 5 copies of EIN3 binding sequence (EBS) fused with luciferase gene (LUC) was transformed to eto1-4 and subsequently used for screening compounds of a chemical library. Ethylene mutants eto1-4, eto2-1, ctr1-1 and the EIN3 overexpression line (35S::EIN3) were described previously (Solano, et al. (1998) Genes Dev 12, 3703-3714). Seeds were sterilized with 30% bleach for 6 min and sown in half-strength Murashige and Skoog (0.5×MS) medium supplemented with 0.8% agar and stratified in the dark at 4° C. for 3-4 days before germination. For analysis of the triple response phenotype, stratified seeds were grown in the dark at 22° C. for 3 days before scoring the phenotype.
A DIVERSet library (ChemBridge Inc.) containing 10,000 small molecules (in DMSO) was used for chemical screening. Three rounds of chemical screenings were carried out in 0.5×MS agar medium containing individual chemicals in each well of 96- and 24-well micro-titer plates. The initial screening was performed by sowing 10 to 15 seeds in the wells of micro-titer plates containing small molecules at 50 μM to score the long-hypocotyl phenotype. For the second and third screenings, we used 25 μM of small molecules selected from the first round of screening to score and confirm the phenotype. The seedling phenotype was scored by use of a digital camera attached to a Zeiss stereomicroscope (SteREO V8), and quantitation of hypocotyl length was performed by use of NIH Image J software. AVG and silver thiosulfate (STS, by mixing silver nitrate and sodium thiosulfate at a 1:4 molar ratio immediately before use) were obtained from Sigma and used as controls to suppress ethylene biosynthesis and perception, respectively. Agar medium was supplemented with 1-aminocyclopropane-1-carboxylic acid (10 μM, Merck) to induce the triple response in etiolated seedlings.
Shortened hypocotyls in etiolated seedlings is one of the triple response phenotypes (Guzman, et al. (1990) Plant Cell 2, 513-523; Wang, et al. (2004) Nature 428, 945-950). Two chemical compounds negating ethylene response, AVG and STS, were included as a control for comparison.

[3] = molecular target: T1, recombinant Arabidopsis ACS5 (Arabidopsis thaliana, UniProt Q37001); assay: Enzyme kinetics assay of ACS5 (Lineweaver-Burk); type: biochemical; parameters: Vmax of recombinant ACS5 in the presence of inhibitor: unit not given here
T1 construct: The full-length cDNA of Arabidopsis ACS5 (At5g65800) was cloned to pETDuet (Novagen); 6His (N); made in house; host or cells: E. coli BL21-CodonPlus (Stratagene)
T1 sequence (Q37001 1-470): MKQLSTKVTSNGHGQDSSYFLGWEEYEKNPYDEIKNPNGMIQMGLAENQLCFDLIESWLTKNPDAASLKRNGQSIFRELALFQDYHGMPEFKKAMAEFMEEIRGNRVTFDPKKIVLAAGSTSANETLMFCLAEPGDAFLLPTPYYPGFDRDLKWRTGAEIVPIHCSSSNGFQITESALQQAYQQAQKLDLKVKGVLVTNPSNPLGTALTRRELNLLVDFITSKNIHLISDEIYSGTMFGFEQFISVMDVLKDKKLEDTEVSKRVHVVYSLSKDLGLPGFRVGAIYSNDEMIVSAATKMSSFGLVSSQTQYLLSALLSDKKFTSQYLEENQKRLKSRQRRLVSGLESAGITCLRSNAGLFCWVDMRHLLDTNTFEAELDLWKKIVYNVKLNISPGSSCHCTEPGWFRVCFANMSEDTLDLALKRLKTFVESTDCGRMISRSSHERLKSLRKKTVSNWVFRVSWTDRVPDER
Method: For the enzyme kinetics assay, different concentrations of SAM (20, 40, 60, 80, 100, 150, and 200 μM) were used to determine the Km and Vmax of purified recombinant ACS5. In addition, two concentrations, 0.05 and 0.1 μM, of AVG and compound 7303 were tested to determine the inhibition constant Ki. Reactions of enzyme kinetics assay were performed by first incubating chemical inhibitors or DMSO with different concentrations of SAM in 20-mL GC vials, then 1.6 μg purified ACS5 was added to initiate the enzyme reaction for 30 min at 25° C. Gas chromatography was used to quantitate the levels of ethylene chemically converted from ACC as described previously. Data analysis of enzyme kinetics assays and preparation of Lineweaver-Burk plots were done by SIGMAPLOT (Systat Software Inc.).
Because the exemplary invention compounds and AVG have distinct chemical structures (Table 1), they may use different mechanisms to inhibit ACC synthase. To clarify this issue, compound 7303 was selected as a representative of the exemplary invention compounds for enzyme kinetic assay to determine the inhibitory mechanism. […] Data from the enzyme kinetic assay support that the exemplary invention compounds are novel inhibitors of ACC synthase different from AVG and show uncompetitive inhibition in ACS activity.

| SMILES | suppression in hypocotyl length [1] | ranking in both hypocotyl length and ethylene level assays [2] | suppression of the eto1-4 (triple response) phenotype [2] | effectiveness in phenotypical assay [2] | concentration at which hypocotyl elongation becomes visible [2] | concentration reaching maximal / nearly saturated effect on hypocotyl [2] | Vmax of recombinant ACS5 in the presence of inhibitor ([3]; 0.1 μM inhibitor, without inhibitor 95.1±5.0) | inhibition pattern (mechanism) ([3]; Lineweaver-Burk plot, 0.05 and 0.1 μM) | Vmax ([3]; kinetic parameters of recombinant ACS5 fitted for the inhibitor series, substrate SAM) | Ki ([3]; recombinant ACS5, inhibitor at 0.05 and 0.1 μM, read-out: calculated inhibition constant (Ki)) |
| --- | --- | --- | --- | --- | --- | --- | --- | --- | --- | --- |
| COc1ccc(C2CC(=O)c3cnc(Nc4ccccc4)nc3C2)cc1 (stereo not drawn) [Compound 7303] | 25% | most effective | Suppression; also recorded: effect comparable to that of compounds 9393 and 9370 | highly effective; also recorded: the most effective | 0.1 µM | 5 µM | 50.5±1.2 | uncompetitive inhibitor | 92.4 µmol/h/mg | 98.4 ± 6.7 nM |
| Cc1ccc(C2CC(=O)c3cnc(NC4CCCC4)nc3C2)cc1 (stereo not drawn) [Compound 9370] | – | most effective | Suppression; also recorded: effectiveness comparable to that of silver nitrate | highly effective | 0.1 µM | 5 µM | – | – | – | – |
| CC1(C)CC(=O)c2cnc(NC3CCCC3)nc2C1 [Compound 9393] | – | most effective | Suppression; also recorded: effectiveness comparable to that of silver nitrate | highly effective | – | – | – | – | – | – |
